Measurements: paper PMC10455239, “Antimicrobial, Cytotoxic, and α-Glucosidase Inhibitory Activities of Ethanol Extract and Chemical Constituents Isolated from Homotrigona apicalis Propolis—In Vitro and Molecular Docking Studies” (Life, 2023)
≈ marks a conversion by molar mass, not a printed value. Where two headings read alike, the source gives them in different places.

Tests used:
Lactobacillus fermentum = assay: Antimicrobial activity, broth microdilution; assay type: cell-based; details: read-out: IC50 L. fermentum
Protocol: (§1) The antimicrobial activity assay was performed using the broth microdilution method. Dimethyl sulfoxide (DMSO) was used for the preparation of compound solutions at concentrations of 256 μg/mL, 64 μg/mL, 16 μg/mL, 4 μg/mL, and 1 μg/mL. Three strains of Gram-positive bacteria (Staphylococcus aureus, Bacillus cereus, and Lactobacillus fermentum); three strains of Gram-negative bacteria (Salmonella enterica, Escherichia coli, and Pseudomonas aeruginosa), and fungus Candida albicans (obtained from the American Type Culture Collection (ATCC)) were used for the test. Ampicillin, Cefotaxim, and Nystatin were used as positive controls for the Gram (+) bacterial and Gram (−) bacterial strains and C. albicans, respectively. The activity of the isolated compounds was expressed as an IC50 value (half-maximal inhibitory concentration). The IC50 values were calculated using the program […].

Staphylococcus aureus = assay: Antimicrobial activity, broth microdilution; assay type: cell-based; details: read-out: IC50 S. aureus
Protocol: as §1

Bacillus cereus = assay: Antimicrobial activity, broth microdilution; assay type: cell-based; details: read-out: IC50 B. cereus
Protocol: as §1

Pseudomonas aeruginosa = assay: Antimicrobial activity, broth microdilution; assay type: cell-based; details: for IC50: Pseudomonas aeruginosa, read-out: IC50 P. aeruginosa
Protocol: as §1

Escherichia coli = assay: Antimicrobial activity, broth microdilution; assay type: cell-based; details: for IC50: Escherichia coli, read-out: IC50 E. coli
Protocol: as §1

Salmonella enterica = assay: Antimicrobial activity, broth microdilution; assay type: cell-based; details: Gram (−) strain; for IC50: Salmonella enterica, read-out: IC50 S. enterica
Protocol: as §1

α-glucosidase = molecular target: T1, α-glucosidase (Saccharomyces cerevisiae, UniProt P53341); assay: biochemical
T1 construct: purchased Sigma-Aldrich G0660
T1 sequence (P53341 whole entry): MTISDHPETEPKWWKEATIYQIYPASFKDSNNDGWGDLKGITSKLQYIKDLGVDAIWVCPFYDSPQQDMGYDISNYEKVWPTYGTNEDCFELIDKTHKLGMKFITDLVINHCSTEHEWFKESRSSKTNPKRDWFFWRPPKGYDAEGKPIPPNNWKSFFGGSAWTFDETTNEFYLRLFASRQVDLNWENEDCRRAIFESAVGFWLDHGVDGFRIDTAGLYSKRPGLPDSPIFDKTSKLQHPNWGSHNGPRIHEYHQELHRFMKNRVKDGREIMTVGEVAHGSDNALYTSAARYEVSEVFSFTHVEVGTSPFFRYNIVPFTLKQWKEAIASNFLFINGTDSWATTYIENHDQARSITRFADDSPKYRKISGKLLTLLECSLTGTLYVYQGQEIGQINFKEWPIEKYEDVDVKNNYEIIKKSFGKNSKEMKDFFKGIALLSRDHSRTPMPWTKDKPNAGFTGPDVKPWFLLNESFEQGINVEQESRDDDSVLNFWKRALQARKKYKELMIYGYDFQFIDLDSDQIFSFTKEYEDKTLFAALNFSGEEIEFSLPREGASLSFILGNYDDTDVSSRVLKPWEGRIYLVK
Protocol: An assay for the α-glucosidase inhibitory activity was carried out by a modification of the published method. Briefly, solutions of α-glucosidase (Saccharomyces cerevisiae, G0660, Sigma-Aldrich, St. Louis, MO, USA) and p-nitrophenyl α-D-glucopyranoside (Sigma-Aldrich, St. Louis, MO, USA) were prepared in a phosphate buffer (100 mM, pH 6.8, Sigma-Aldrich, St. Louis, MO, USA). […] The compound solution (2 μL) and 40 µL of enzyme solution (0.5 U/mL) in 120 µL phosphate buffer were mixed. After 5 min of preincubation, 20 µL of 10 mM p-nitrophenyl α-D-glucopyranoside prepared in phosphate buffer was added, and the reaction mixture was incubated for 30 min at 37 °C. The reaction was quenched by the addition of 80 µL of 0.2 M Na2CO3. The absorbance of the released p-nitrophenol was measured at 410 nm using a Biotek reader. The % inhibition was calculated using the following equation:Inhibition (%) = [1 − (Asample/Acontrol)] ∗ 100
The IC50 values of the isolated compounds were calculated using the program Table Curve.

KB (epidermal carcinoma) = assay: Cytotoxicity assay (MTT); assay type: cell-based; details: read-out: IC50 KB
Protocol: (§2) The cytotoxic assays were evaluated in triplicate against three cancer cell lines, namely KB (epidermal carcinoma), A-549 (human lung adenocarcinoma), and HepG-2 (human hepatoma) (ATCC), with a modification of the previously published method. The cells were cultured in Dulbecco’s D-MEM medium (Gibco, Life Technologies Corporation, Grand Island, NY, USA), supplemented with 10% fetal calf serum (Sigma-Aldrich, St. Loius, MO, USA), L-glutamine (2 mM) (Sigma-Aldrich, St. Loius, MO, USA), penicillin G (100 UI/mL), and streptomycin (100 μg/mL) (Sigma-Aldrich, St. Loius, MO, USA). The compound solutions were prepared in DMSO, and the cytotoxic assays were conducted in 96-well microtiter plates against the cancer cells (3 × 10^5 cells/mL concentration). After 48 h incubation at 37 °C in an air/CO2 (95:5) atmosphere, with or without isolated compounds, MTT reagent was added to each well (0.5 mg/mL). The cell growth was assessed by measuring the colorimetric of formazan at 570 nm using a microplate reader. […] Ellipticine was used as a positive reference.

HepG-2 (human hepatoma) = assay: Cytotoxicity assay (MTT); assay type: cell-based; details: read-out: IC50 Hep-G2
Protocol: as §2

[1] = tested on: A-549 (human lung adenocarcinoma); assay: Cytotoxicity assay (MTT); assay type: cell-based; details: read-out: IC50 A-549
Protocol: as §2

Candida albicans = assay: Antimicrobial activity, broth microdilution; assay type: cell-based; details: for IC50: Candida albicans, read-out: IC50 C. albicans
Protocol: as §1

[2] = tested on: Gram (+) bacterial strains; assay: Antibacterial activity, range over strains; assay type: cell-based; details: range over strains and compounds
Protocol: as §1

[3] = tested on: KB, HepG-2, and A-549 cancer cell lines; assay: Cytotoxicity assay (MTT), range over the three cell lines; assay type: cell-based; details: range over three cell lines and both xanthones
Protocol: as §2

[4] = Table S1, α-glucosidase, read-out: IC50 (Table S1) (converted)
[5] = p-nitrophenyl α-D-glucopyranoside, pH 6.8, 37 °C, read-out: IC50 α-Glucosidase Inhibitory Activity
[6] = IC50 (Table S1), Table S1, α-glucosidase
[7] = IC50 α-Glucosidase Inhibitory Activity, p-nitrophenyl α-D-glucopyranoside, pH 6.8, 37 °C

Row | SMILES | IC50 (Lactobacillus fermentum; Gram (+) strain) [µg/mL] | IC50 (α-glucosidase; [4]) [µM] | IC50 (α-glucosidase; [5]) [µM] | IC50 (KB (epidermal carcinoma); MTT, 48 h incubation) [µg/mL] | IC50 (HepG-2 (human hepatoma); HepG2, MTT, 48 h incubation) [µg/mL] | IC50 ([1]; A549, MTT, 48 h incubation) [µg/mL] | IC50 (Candida albicans) [µg/mL] | IC50 (Pseudomonas aeruginosa) [µg/mL] | IC50 (Escherichia coli) [µg/mL] | IC50 (Staphylococcus aureus) [µg/mL] | IC50 (Bacillus cereus) [µg/mL] | IC50 (Salmonella enterica) [µg/mL] | IC50 (Lactobacillus fermentum) [µg/mL] | also measured
1 | CC1(C)S[C@@H]2[C@H](NC(=O)[C@H](N)c3ccccc3)C(=O)N2[C@H]1C(=O)O [A, Ampicillin, reference compound] | 1.03 ± 0.07 (≈ 2.95 µM) | – | – | – | – | – | – | – | – | – | – | – | – | IC50 (Staphylococcus aureus; Gram (+) strain): 0.02 ± 0.005 µg/mL (≈ 0.0572 µM); IC50 (Bacillus cereus; Gram (+) strain): 3.62 ± 0.15 µg/mL (≈ 10.4 µM)
2 | CO/N=C(\C(=O)N[C@@H]1C(=O)N2C(C(=O)O)=C(COC(C)=O)CS[C@H]12)c1csc(N)n1 [C, Cefotaxim, reference compound] | – | – | – | – | – | – | – | – | – | – | – | – | – | IC50 P. aeruginosa (Pseudomonas aeruginosa; Gram (−) strain): 4.34 ± 0.15 µg/mL (≈ 9.53 µM); IC50 E. coli (Escherichia coli; Gram (−) strain): 0.07 ± 0.02 µg/mL (≈ 0.154 µM); IC50 S. enterica (Salmonella enterica): 0.43 ± 0.05 µg/mL (≈ 0.944 µM)
3 | C=C1CC[C@@H]2[C@H]([C@H]3[C@H]1CC[C@]3(C)O)C2(C)C [Compound 1, spathulenol] | 206 ± 5.23 (≈ 934 µM) | > 1160 | > 1160 | > 128 | > 128 | > 128 | > 256 | > 256 | > 256 | > 256 | > 256 | > 256 | – | –
4 | CC1(C)[C@H]2[C@H]3[C@@H](CC[C@]3(C)O)[C@](C)(O)CC[C@H]21 [Compound 2, 1αH,5βH-aromandendrane-4β,10α-diol] | – | > 1070 | > 1070 | > 128 | > 128 | > 128 | > 256 | > 256 | > 256 | > 256 | > 256 | > 256 | > 256 | –
5 | C=C1CC[C@@H](O)[C@]2(C)CC[C@@H](C(C)C)[C@H](O)[C@@H]12 [Compound 3, 1β,6α-dihydroxy-4(15)-eudesmene] | – | > 1070 | > 1070 | > 128 | > 128 | > 128 | > 256 | > 256 | > 256 | > 256 | > 256 | > 256 | > 256 | –
6 | CC1(C)[C@H]2[C@H]3[C@H](CC[C@@]3(C)O)[C@@](C)(O)CC[C@H]21 [Compound 4, 1βH,5βH-aromandendrane-4α,10β-diol] | – | > 1070 | > 1070 | 89.1 ± 9.67 (≈ 374 µM) | > 128 | > 128 | > 256 | > 256 | > 256 | > 256 | > 256 | > 256 | > 256 | –
7 | CC(=O)O[C@H]1CC[C@]2(C)[C@H]3CC=C4[C@@H]5CC(C)(C)CC[C@]5(C(=O)O)CC[C@@]4(C)[C@]3(C)CC[C@H]2C1(C)C [Compound 5, acetyl oleanolic acid] | – | – | – | – | – | – | > 256 | > 256 | > 256 | > 256 | > 256 | > 256 | 49.9 ± 1.06 (≈ 100 µM) | IC50 (α-glucosidase; [6]): 16.9 µM; IC50 (α-glucosidase; [7]): 16.9 µM; IC50 (KB (epidermal carcinoma); 48 h): > 128 µg/mL; IC50 (HepG-2 (human hepatoma); HepG2, 48 h): > 128 µg/mL; IC50 ([1]; A549, 48 h): > 128 µg/mL
8 | CC(C)=CCC[C@H](C(=O)O)[C@@H]1CC[C@]2(C)C3=C(CC[C@@]12C)[C@@]1(C)CC[C@@H](O)C(C)(C)[C@@H]1CC3 [Compound 6, 3α-hydroxytirucalla-8,24-dien-21-oic acid] | – | – | – | – | – | – | > 256 | > 256 | > 256 | > 256 | 141 ± 4.14 (≈ 308 µM) | > 256 | 62.2 ± 1.24 (≈ 136 µM) | IC50 (α-glucosidase; [6]): > 561 µM; IC50 (α-glucosidase; [7]): > 561 µM; IC50 (KB (epidermal carcinoma); 48 h): 49.3 ± 5.21 µg/mL (≈ 108 µM); IC50 (HepG-2 (human hepatoma); HepG2, 48 h): 77.7 ± 8.09 µg/mL (≈ 170 µM); IC50 ([1]; A549, 48 h): 78.6 ± 7.69 µg/mL (≈ 172 µM)
9 | C[C@H]1[C@H](C)CC[C@]2(C(=O)O)CC[C@]3(C)C(=CC[C@@H]4[C@@]5(C)CC[C@H](O)C(C)(C)[C@@H]5CC[C@]43C)[C@H]12 [Compound 7, ursolic acid] | 10.6 ± 0.7 (≈ 23.2 µM) | – | – | > 128 | > 128 | > 128 | – | – | – | – | – | > 256 | – | IC50 [2]: 0.56 to 17.3 µg/mL (≈ 1.23 to 37.9 µM); IC50 (Candida albicans; Fungus): > 256 µg/mL; IC50 (Pseudomonas aeruginosa; Gram (−) strain): > 256 µg/mL; IC50 (Escherichia coli; Gram (−) strain): > 256 µg/mL; IC50 (Staphylococcus aureus; Gram (+) strain): 7.1 ± 0.25 µg/mL (≈ 15.5 µM); IC50 (Bacillus cereus; Gram (+) strain): 10.2 ± 0.67 µg/mL (≈ 22.3 µM)
10 | CC(C)=CCC/C(C)=C/Cc1c(O)c(CC=C(C)C)c(O)c2c(=O)c3cc(O)ccc3oc12 [Compound 8, cochinchinone A] | 8.67 ± 0.38 (≈ 19.3 µM) | 20.2 | – | 29.3 ± 2.07 (≈ 65.3 µM) | 17.4 ± 1.03 (≈ 38.7 µM) | 20.3 ± 1.34 (≈ 45.3 µM) | – | – | – | – | – | > 256 | – | IC50 [2]: 0.56 to 17.3 µg/mL (≈ 1.25 to 38.6 µM); IC50 [3]: 7.55 to 29.3 µg/mL (≈ 16.8 to 65.3 µM); IC50 (Candida albicans; Fungus): 65.3 ± 3.54 µg/mL (≈ 146 µM); IC50 (Pseudomonas aeruginosa; Gram (−) strain): 35.4 ± 2.03 µg/mL (≈ 79 µM); IC50 (Escherichia coli; Gram (−) strain): > 256 µg/mL; IC50 (Staphylococcus aureus; Gram (+) strain): 17.3 ± 0.87 µg/mL (≈ 38.6 µM); IC50 (Bacillus cereus; Gram (+) strain): 7.99 ± 0.33 µg/mL (≈ 17.8 µM)
11 | Cc1c2ccncc2c(C)c2c1[nH]c1ccccc12 [Ellipticine, reference compound] | – | – | – | 0.48 ± 0.03 (≈ 1.95 µM) | 0.5 ± 0.03 (≈ 2.03 µM) | 0.34 ± 0.02 (≈ 1.38 µM) | – | – | – | – | – | – | – | –
12 | C[C@@H]1[C@H](O)[C@@H](C)/C=C/C=C/CC/C=C/C=C/C=C/C=C/C(O[C@H]2O[C@H](C)[C@@H](O)[C@H](N)[C@@H]2O)CC2O[C@](O)(CC(O)C(O)CCC(O)CC(O)CC(O)CC(=O)O[C@H]1C)CC(O)C2C(=O)O (stereo partly shown) [N, Nystatin, reference compound] | – | – | – | – | – | – | – | – | – | – | – | – | – | IC50 C. albicans (Candida albicans; Fungus): 1.32 ± 0.05 µg/mL (≈ 1.43 µM)
